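Step 1: Grow cells in 96-well plates. Step 2: Expose to compound for 48 hours at 5 concentrations. Step 3: Interpolate endpoints linearly; if unreached, use highest concentration. TGI marks complete inhibition of growth.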
Columns and labels:
Experiment in all cases: growth of human tumour cells (NCI), 48 h
786-0 renal = tested on: 786-0 renal
A498 renal = tested on: A498 renal
A549 NSCLC = tested on: A549 NSCLC
ACHN renal = tested on: ACHN renal
BT-549 breast = tested on: BT-549 breast
CAKI-1 renal = tested on: CAKI-1 renal
CCRF-CEM leukemia = tested on: CCRF-CEM leukemia
COLO 205 colon = tested on: COLO 205 colon
DU-145 prostate = tested on: DU-145 prostate
EKVX NSCLC = tested on: EKVX NSCLC
HCC-2998 colon = tested on: HCC-2998 colon
HCT-116 colon = tested on: HCT-116 colon
HCT-15 colon = tested on: HCT-15 colon
HL-60(TB) leukemia = tested on: HL-60(TB) leukemia
HOP-62 NSCLC = tested on: HOP-62 NSCLC
HOP-92 NSCLC = tested on: HOP-92 NSCLC
HS 578T breast = tested on: HS 578T breast
HT29 colon = tested on: HT29 colon
IGROV1 ovarian = tested on: IGROV1 ovarian
K-562 leukemia = tested on: K-562 leukemia
KM12 colon = tested on: KM12 colon
M14 melanoma = tested on: M14 melanoma
MALME-3M melanoma = tested on: MALME-3M melanoma
MCF7 breast = tested on: MCF7 breast
MDA-MB-231 breast = tested on: MDA-MB-231 breast
MDA-MB-435 = tested on: MDA-MB-435
MDA-N = tested on: MDA-N
MOLT-4 leukemia = tested on: MOLT-4 leukemia
NCI-H226 lung = tested on: NCI-H226 lung
NCI-H23 lung = tested on: NCI-H23 lung
NCI-H460 lung = tested on: NCI-H460 lung
NCI-H522 lung = tested on: NCI-H522 lung
NCI/ADR-RES ovarian = tested on: NCI/ADR-RES ovarian
OVCAR-3 ovarian = tested on: OVCAR-3 ovarian
OVCAR-4 ovarian = tested on: OVCAR-4 ovarian
OVCAR-5 ovarian = tested on: OVCAR-5 ovarian
OVCAR-8 ovarian = tested on: OVCAR-8 ovarian
PC-3 prostate = tested on: PC-3 prostate
RPMI-8226 leukemia = tested on: RPMI-8226 leukemia
RXF 393 renal = tested on: RXF 393 renal
SF-268 CNS = tested on: SF-268 CNS
SF-295 CNS = tested on: SF-295 CNS
SF-539 CNS = tested on: SF-539 CNS
SK-MEL-2 melanoma = tested on: SK-MEL-2 melanoma
SK-MEL-5 melanoma = tested on: SK-MEL-5 melanoma
SK-OV-3 ovarian = tested on: SK-OV-3 ovarian
SN12C renal = tested on: SN12C renal
SNB-19 CNS = tested on: SNB-19 CNS
SNB-75 CNS = tested on: SNB-75 CNS
SR leukemia = tested on: SR leukemia
SW-620 colon = tested on: SW-620 colon
TK-10 renal = tested on: TK-10 renal
U251 CNS = tested on: U251 CNS
UACC-257 melanoma = tested on: UACC-257 melanoma
UACC-62 melanoma = tested on: UACC-62 melanoma
UO-31 renal = tested on: UO-31 renal
T-47D breast = tested on: T-47D breast

Structure (SMILES): CCCCc1c2c(nc3c1CCCC3O)CCCC2 (stereo not given)
- TGI (786-0 renal): > 100 µM
- TGI (A498 renal): > 100 µM
- TGI (A549 NSCLC): > 100 µM
- TGI (ACHN renal): > 100 µM
- TGI (BT-549 breast): > 100 µM
- TGI (CAKI-1 renal): > 100 µM
- TGI (CCRF-CEM leukemia): > 100 µM
- TGI (COLO 205 colon): > 100 µM
- TGI (DU-145 prostate): > 100 µM
- TGI (EKVX NSCLC): > 100 µM
- TGI (HCC-2998 colon): > 100 µM
- TGI (HCT-116 colon): > 100 µM
- TGI (HCT-15 colon): > 100 µM
- TGI (HL-60(TB) leukemia): > 100 µM
- TGI (HOP-62 NSCLC): > 100 µM
- TGI (HOP-92 NSCLC): > 100 µM
- TGI (HS 578T breast): > 100 µM
- TGI (HT29 colon): > 100 µM
- TGI (IGROV1 ovarian): > 100 µM
- TGI (K-562 leukemia): > 100 µM
- TGI (KM12 colon): > 100 µM
- TGI (M14 melanoma): > 100 µM
- TGI (MALME-3M melanoma): > 100 µM
- TGI (MCF7 breast): > 100 µM
- TGI (MDA-MB-231 breast): > 100 µM
- TGI (MDA-MB-435): > 100 µM
- TGI (MDA-N): > 100 µM
- TGI (MOLT-4 leukemia): > 100 µM
- TGI (NCI-H226 lung): > 100 µM
- TGI (NCI-H23 lung): > 100 µM
- TGI (NCI-H460 lung): > 100 µM
- TGI (NCI-H522 lung): > 100 µM
- TGI (NCI/ADR-RES ovarian): > 100 µM
- TGI (OVCAR-3 ovarian): > 100 µM
- TGI (OVCAR-4 ovarian): > 100 µM
- TGI (OVCAR-5 ovarian): > 100 µM
- TGI (OVCAR-8 ovarian): > 100 µM
- TGI (PC-3 prostate): > 100 µM
- TGI (RPMI-8226 leukemia): > 100 µM
- TGI (RXF 393 renal): > 100 µM
- TGI (SF-268 CNS): > 100 µM
- TGI (SF-295 CNS): > 100 µM
- TGI (SF-539 CNS): > 100 µM
- TGI (SK-MEL-2 melanoma): > 100 µM
- TGI (SK-MEL-5 melanoma): > 100 µM
- TGI (SK-OV-3 ovarian): > 100 µM
- TGI (SN12C renal): > 100 µM
- TGI (SNB-19 CNS): > 100 µM
- TGI (SNB-75 CNS): > 100 µM
- TGI (SR leukemia): > 100 µM
- TGI (SW-620 colon): > 100 µM
- TGI (TK-10 renal): > 100 µM
- TGI (U251 CNS): > 100 µM
- TGI (UACC-257 melanoma): > 100 µM
- TGI (UACC-62 melanoma): > 100 µM
- TGI (UO-31 renal): > 100 µM

Structure (SMILES): CC(=O)N1OC(C)CC1Nc1ccc(Br)cc1 (stereo not given)
- TGI (786-0 renal): > 100 µM
- TGI (A498 renal): > 100 µM
- TGI (A549 NSCLC): > 100 µM
- TGI (ACHN renal): > 100 µM
- TGI (BT-549 breast): > 100 µM
- TGI (CCRF-CEM leukemia): > 100 µM
- TGI (DU-145 prostate): > 100 µM
- TGI (EKVX NSCLC): > 100 µM
- TGI (HCC-2998 colon): 22.4 µM
- TGI (HCT-116 colon): > 100 µM
- TGI (HCT-15 colon): > 100 µM
- TGI (HL-60(TB) leukemia): > 100 µM
- TGI (HOP-62 NSCLC): 6.13 µM
- TGI (HOP-92 NSCLC): > 100 µM
- TGI (HS 578T breast): > 100 µM
- TGI (HT29 colon): > 100 µM
- TGI (IGROV1 ovarian): > 100 µM
- TGI (K-562 leukemia): > 100 µM
- TGI (KM12 colon): > 100 µM
- TGI (M14 melanoma): > 100 µM
- TGI (MALME-3M melanoma): > 100 µM
- TGI (MCF7 breast): > 100 µM
- TGI (MDA-MB-435): > 100 µM
- TGI (MDA-N): > 100 µM
- TGI (MOLT-4 leukemia): > 100 µM
- TGI (NCI-H226 lung): > 100 µM
- TGI (NCI-H23 lung): > 100 µM
- TGI (NCI-H460 lung): > 100 µM
- TGI (NCI/ADR-RES ovarian): > 100 µM
- TGI (OVCAR-3 ovarian): > 100 µM
- TGI (OVCAR-5 ovarian): > 100 µM
- TGI (OVCAR-8 ovarian): > 100 µM
- TGI (PC-3 prostate): > 100 µM
- TGI (RXF 393 renal): > 100 µM
- TGI (SF-268 CNS): > 100 µM
- TGI (SF-295 CNS): > 100 µM
- TGI (SF-539 CNS): > 100 µM
- TGI (SK-MEL-2 melanoma): > 100 µM
- TGI (SK-MEL-5 melanoma): > 100 µM
- TGI (SK-OV-3 ovarian): > 100 µM
- TGI (SN12C renal): > 100 µM
- TGI (SNB-19 CNS): > 100 µM
- TGI (SR leukemia): > 100 µM
- TGI (SW-620 colon): > 100 µM
- TGI (T-47D breast): > 100 µM
- TGI (TK-10 renal): > 100 µM
- TGI (U251 CNS): > 100 µM
- TGI (UACC-62 melanoma): > 100 µM
- TGI (UO-31 renal): > 100 µM
